Test results published in patent US8901091B2, “Method of treating herpes virus infection using macrocyclic lactone compound” (Galderma S.A., priority 2010, dated 2014).

Tests used:
varicella zoster virus = assay: Informal trials: topical ivermectin lotion in patients with herpes zoster (shingles); assay type: in vivo, human
Text: For treating herpes zoster, preferably the surface of the affected area of the skin is gently scratched prior to rubbing the composition containing the macrocyclic lactone compound on the area. Gentle scratching abrades the stratumcorium, which allows better penetration of the macrocyclic lactone compound into the skin. The stratum corneum is the outermost layer of the epidermis, composed of large, polyhedral, plate-like envelopes filled with keratin, which is made up of dead cells that have migrated up from the stratum granulosum. As these dead cells slough off on the surface, they are continuously replaced by new cells from the stratum germinativum. Alternatively, the composition can be dispensed on the affected area, and then scratched into the area. Scratching with cleaned finger nails or a sterilized scraping tool, for example small sharp curette or a needle point, can be used.
(§1) The composition can be applied topically to the affected area one or more times a day, typically one to two times a day, when a herpes simplex episode occurs or during the course of shingles or chicken box. When the pain is severe, the composition can be applied more frequently to help alleviate the symptoms. Moreover, the composition can also be integrated into or applied on medical dressing, dermal patch, or lint free wipes, which can be applied to the affected area as needed, to provide a more extended exposure to the medication.
For herpes zoster, at the early onset the patient develops a patch of linear area of paresthesia, and hyperesthesia (burning, stinging, and pain). At this time, the composition containing ivermectin should be topically applied promptly and scratched into the skin. Concurrently, an oral antiviral medication can be used promptly.
(§2) Operating with informed consent of individuals, individuals were treated with the topical composition and the method of the present invention for treating herpes virus infection, more particularly herpes simplex and herpes zoster or shingles, as described in Examples 3 to 8.

herpes simplex virus [1] = assay: Informal trials: topical ivermectin lotion in patients with herpes simplex; assay type: in vivo, human
Text: The composition of the present invention described above is applied to the affected area of patients having herpes simplex, herpes zoster, or chicken-pox. Preferably, the lotion, cream, gel, or ointment can be applied on the affected area with gentle rubbing to help penetration of the macrocyclic lactone compound into the skin. Moreover, when lotion, cream, or hydrogel is used, preferably the affected area is dampened by water first, then a drop of lotion, cream, or hydrogel is rubbed on the affected area by finger(s). […] Moreover, if blisters are already formed at the affected area, at the time of applying the topical composition the blisters can be broken using a needle, then the composition is rubbed in the lesion.
as §1
The most impressive results are seen with early recognition and treatment. […] In medicine, a prodrome is an early symptom (or set of symptoms) that might indicate the start of a disease before specific symptoms occur. Prodromes may be non-specific symptoms or, in some instances, may clearly indicate a particular disease. In herpes simplex there is a prodrome consisting of a change in sensation, typically slight numbness or a faint tingling sensation with vague swelling or induration.
as §2

[2] = Side effects and tolerability observed in treated patients; assay type: in vivo, human; settings: Example 5: person, high dose
Description: Operating with informed consent of individuals, individuals were treated with the topical composition and the method of the present invention for treating herpes virus infection, more particularly herpes simplex and herpes zoster or shingles, as described in Examples 3 to 8. In the above described informal trials, no adverse side effects or contra-indications were observed among the patients. The patients had no complaints of skin irritation, sensitivity or discomfort originating from the treatment.

herpes simplex virus [3] = settings: cited from earlier work
[4] = topical composition, ivermectin concentration as low as 0.075%

Question: For `CC(=O)OCC(CCn1cnc2cnc(N)nc21)COC(C)=O` [Famvir®, famciclovir], which “Response of severe pain with burning and tingling to prior therapy” value (varicella zoster virus; Example 6: person, high dose) is on record?
Answer: Its value is “had not responded”.

Question: For `CC(C)[C@H](N)C(=O)OCCOCn1cnc2c(=O)[nH]c(N)nc21` [Valtrex®, valacyclovir], which “Satisfaction with prior therapy” value (herpes simplex virus [1]; Example 5: person, high dose) is on record?
Answer: Its value is “without total satisfaction”.

Question: What about the “Side effects of prior therapy” value [2] of the same compound?
Answer: The value was “cardiac irregularities, especially bigeminy and trigeminy”.

Question: For `Nc1nc2c(ncn2COCCO)c(=O)[nH]1` [Zovirax®, acyclovir], which “Benefit of prior therapy, orally” value (herpes simplex virus [1]; Example 3: patient history, oral) is on record?
Answer: The value was “with benefit”.

Question: And the “Benefit of prior therapy, topically” value (herpes simplex virus [1]; Example 3: patient history, topical)?
Answer: The value was “without benefit”.

Question: Which Pain duration (herpes simplex virus [3]; topical, reported in a study) does the source give for `O=c1[nH]c(=O)n([C@H]2C[C@H](O)[C@@H](CO)O2)cc1I` [idoxuridine] here?
Answer: The Pain duration was “reduced pain duration”.

Question: What about the “Time to loss of crust” value (herpes simplex virus [3]; topical, reported in a study) of the same compound?
Answer: Its value is “decreased time to loss of crust”.

Question: Which “Duration of lesions, pain, and viral shedding” value (herpes simplex virus [3]; cream applied early and late in course of HSV infection (Hamuy et al. 1998)) does the source give for `Nc1nc2c(ncn2CCC(CO)CO)c(=O)[nH]1` [penciclovir] here?
Answer: The value was “decreased the duration of lesions, pain, and viral shedding”.

Question: What does the source list for ivermectin?
Answer: Effectiveness in treating herpes simplex (herpes simplex virus [1]; [4]): effective; Effectiveness in treating herpes zoster (varicella zoster virus; [4]): effective; Effect of combined systematic and topical treatments on severity of herpes zoster (varicella zoster virus; topical ivermectin composition with concurrent oral antiviral medication): synergistic effect in decreasing the severity
